From publication PMC8910629, “Design, Synthesis, and Anticancer Activity of a Selenium-Containing Galectin-3 and Galectin-9N Inhibitor” (International Journal of Molecular Sciences, 2022)
Where “and” joins values, the source holds several entries; their conditions need not be identical. Equal values may be shown once.

Experiments:
Gal-9N^CRD = biological target: T1, Gal-9N^CRD (Homo sapiens, UniProt O00182); assay: Isothermal titration calorimetry with Gal-9N CRD; format: binding; settings: ITC
T1 construct: Gal-9N^CRD (amino acid residues 1–148) were cloned into the vector pETM11; polyHis-tag (TEV-cleavable, from pETM11) (N); made in house; host or cells: Escherichia coli BL21(DE3)GOLD
Experimental: (§1) The two proteins were cloned into pETM11 expression vector with a N-terminal polyHis-tag that is removable by TEV protease. The recombinant vectors pETM11-gal3^CRD and pETM11-gal9^CRD were used to transform E. coli BL21(DE3)GOLD cells and a single colony was grown overnight at 37 °C in 20 mL of LB medium. In total, 10 mL of the saturated cultures were transferred in 1 L of LB medium and grown at 37 °C to 0.8 OD 600 nm before induction with IPTG (0.5 mM). The inductions were kept for 16 and for 3 h at 22 °C in the expression of Gal-3^CRD and Gal-9N^CRD, respectively. The cells were harvested by centrifugation, re-suspended in 30 mL of lysis buffer (20 mM NaP, 500 mM NaCl, 10 mM imidazole pH 7.0 for Gal-3^CRD and pH 7.5 Gal-9N^CRD), and sonicated. […] Elution was carried out with 300 mM imidazole. Fractions containing the recombinant protein were, finally, applied onto a Superdex 75 10/300 column (GE Healthcare), connected to an AKTA system (GE Healthcare) pre-equilibrated in 20 mM NaP, 150 mM NaCl pH 7.0 for the purification of Gal-3^CRD and pH 7.5 for Gal-9N^CRD.
(§2) The purified proteins were used to perform interaction studies. […] Before all titrations, molecules were dissolved in 20 mM NaP, 150 mM NaCl pH 7.0 (when the molecules were assayed against Gal-3^CRD) or pH 7.5 (for Gal-9N^CRD). The sample cell was filled with 280 μL of Gal-3^CRD or Gal-9N^CRD. Molecules were injected in a volume of 0.2 μL for the first injection and 1 μL for the next 39 injections using an injection interval of 150 s. The control experiment, obtained by injection of the same amount of each molecule in buffer solution, was subtracted to correct for heat production upon molecules dilution. All data were analyzed and fitted using the Microcal Origin version 7.0 software package. Binding enthalpy, dissociation constants, and stoichiometry were determined by fitting the data using a one-set-of-site-binding model.

galectins = settings: cited from earlier work
Gal-1 = test system: Gal-1; parameters: method as in PMID 27356186; settings: cited from earlier work
Gal-3 = settings: cited from earlier work
Gal-3^CRD = biological target: T2, Gal-3^CRD (Homo sapiens, UniProt P17931); assay: Isothermal titration calorimetry with Gal-3 CRD; format: binding; settings: ITC, 298 K
T2 construct: The genes encoding Gal-3^CRD (amino acid residues 112–250); polyHis-tag (TEV-cleavable, from pETM11) (N); made in house; host or cells: Escherichia coli BL21(DE3)GOLD
Experimental: as §1, §2

WM266 cells [1] = assay: Wound healing scratch assay; format: cell-based, human
Experimental: Analysis of cell migration in vitro has been carried out by using the wound healing scratch assay. WM266 cells were grown until they reached a confluent monolayer. After, they were linearly scratched with a pipette tip to generate a cell-free space. […] The area related to each incision was photographed at the time 0, 24, and 48 h using a phase contrast optical microscope with a 10× magnification (Zeiss). The distance between the edges of the incisions was measured by AxioVision Rel. 4.8 software and its mean value was determined as follows: wound closure (%) = 1 − (wound width tx/wound width t0) × 100. Bars depict mean ± SE of three independent experiments.

WM266 cells [2] = assay: Transwell invasion assay; format: cell-based, human; settings: 24 h, SeDG
Experimental: To analyze cell invasion, the surface of a filter membrane of a transwell insert was coated with extracellular matrix (ECL) (Millipore). Cells (5 × 10^4) suspended in 100 μL of serum-free medium were incubated with various concentrations of molecules and successively they were seeded onto the upper compartment of the transwell, whereas the lower chambers were filled with medium containing 10% FCS [65]. After 24 h, the cells were fixed with 10% formalin and stained with crystal violet. The remaining cells in the upper side of the transwell were removed and cells on the undersurface of the filters, the invaded cells, were visualized and counted from six randomly selected fields (10× magnification) under a phase-contrast microscope with AxioVision Rel.

HuVec cells = assay: Angiogenesis (capillary tube formation) assay; format: cell-based, human; settings: SeDG at 2.5 mM
Experimental: Angiogenesis assay was performed by using “In Vitro Angiogenesis Assay Kit” (Merck, Burlington, MA, USA). Briefly, 100 μL of ECL were plated in a pre-cooled 96-well plate and incubated for 1 h at 37 °C. 10,000 cells (HuVec), suspended in EGM-2 [66], incubated with digalactosyl selenides, and seeded onto solidified matrix, according to manufacturer’s instructions. After 5–6 h of incubation at 37 °C, the tube formation was examined by means of a phase contrast optical microscope (Axiovert 200 Zeiss) at 10× magnification and the branch point number was calculated from 3 random fields per each treatment.

tumor cell proliferation = test system: tumor cell proliferation; parameters: method as in doi:10.1039/D1QO00045D; settings: even at 2 mM concentration; cited from earlier work

T1 sequence (O00182 1-148): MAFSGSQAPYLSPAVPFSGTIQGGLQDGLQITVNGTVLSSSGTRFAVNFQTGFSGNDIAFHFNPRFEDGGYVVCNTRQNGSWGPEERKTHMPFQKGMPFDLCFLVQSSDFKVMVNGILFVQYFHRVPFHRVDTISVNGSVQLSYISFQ

For OC[C@H]1O[C@@H](O[C@H]2[C@H](O)[C@@H](O)C(O)O[C@@H]2CO)[C@H](O)[C@@H](O)[C@H]1O (mixture of isomers) [lactose], the “binding of lactose (functional integrity of protein)” value (Gal-9N^CRD; Figure S2) is given as “able to bind lactose” and the “binding affinities to galectins” value (galectins) is given as “high micromolar range”.

In the case of CC(=O)N[C@H]1C(O)O[C@H](CO)[C@@H](O[C@@H]2O[C@H](CO)[C@H](O)[C@H](O)[C@H]2O)[C@@H]1O (some centres unmarked) [LacNAc, N-acetyllactosamine], the “binding affinities to galectins” value (galectins) is listed as “high micromolar range”.

For OC[C@H]1O[C@@H](S[C@@H]2O[C@H](CO)[C@H](O)[C@H](n3cc(-c4cccc(F)c4)nn3)[C@H]2O)[C@H](O)[C@@H](n2cc(-c3cccc(F)c3)nn2)[C@H]1O [TD139], the binding affinity (Gal-1) is given as “nanomolar affinity” and the binding affinity (Gal-3) is given as “nanomolar affinity”.

In the case of OC[C@H]1O[C@@H](S[C@@H]2O[C@H](CO)[C@H](O)[C@H](O)[C@H]2O)[C@H](O)[C@@H](O)[C@H]1O [TDG, β-D-galactopyranosyl-(1-1)-thio-β-D-galactopyranoside], the affinity to galectins (galectins) is given as “same affinity to galectins as lactose”.

In the case of digalactosyl selenide [SeDG], the “n (stoichiometry)” value (Gal-3^CRD) is reported as 1.09 ± 0.05, the ΔG (Gal-3^CRD) is reported as -6.31 kcal/mol and the ΔH (Gal-3^CRD) is reported as -4.32 ± 0.27 kcal/mol. For the same molecule, the “−TΔS” value (Gal-3^CRD) was -1.99 kcal/mol, the Kd (Gal-3^CRD; pH 7.0) was 20.2 ± 2.2 µM and the “n (stoichiometry)” value (Gal-9N^CRD; 298 K) was 1.01 ± 0.05. For the same molecule, the ΔH (Gal-9N^CRD; 298 K) was -5.64 ± 0.36 kcal/mol, the “−TΔS” value (Gal-9N^CRD; 298 K) was -1.46 kcal/mol and the Kd (Gal-9N^CRD; 298 K, pH 7.5) was ~20 µM and 22.4 µM. The wound closure (WM266 cells [1]; WM266, SeDG at 1 and 2.5 mM, 24 and 48 h, vs untreated) was “decreased the wound closure at all used concentrations and time intervals”, the “WM266 invasion through extracellular matrix” value (WM266 cells [2]) was “able to reduce the cells invasion but only at millimolar concentrations” and the “change of capillary tube formation” value (HuVec cells) was “non-statistically significant change”. For the same molecule, the “effect on tumor cell proliferation” value (tumor cell proliferation) was “unable to affect tumor cell proliferation”.

B1: Gal-3^CRD: recombinant carbohydrate recognition domain of galectin 3 (residues 112–250), used as cell motility stimulator (protein, UniProt P17931 112-250, looked up, fragment)
chain: GPLIVPYNLPLPGGVVPRMLITILGTVKPNANRIALDFQRGNDVAFHFNPRFNENNRRVIVCNTKLDNNWGREERQSVFPFESGKPFKIQVLVEPDHFKVAVNDAHLLQYNHRVKKLNEISKLGISGDIDLTSASYTMI
modifications: carbohydrate recognition domain
notes: recombinant carbohydrate recognition domain of galectin 3 (residues 112–250), used as cell motility stimulator
With B1 the “cell migration (wound closure) vs control” value (WM266 cells [1]; WM266, 50 µM Gal-3^CRD) was “migrate more than in the control”.
